Experiments:
[1] = molecular target: T1, RIPK1 kinase (Homo sapiens, UniProt Q13546); assay: In vitro RIPK1 kinase activity IC50 assay (ADP-Glo); format: biochemical; settings: ATP 10 μM; MBP substrate 100 μg/mL; 8 concentration points; read-out: IC50 range of compounds for RIPK1 kinase activity
T1 construct: purchased Promega VA7593
T1 sequence (Q13546 1-671): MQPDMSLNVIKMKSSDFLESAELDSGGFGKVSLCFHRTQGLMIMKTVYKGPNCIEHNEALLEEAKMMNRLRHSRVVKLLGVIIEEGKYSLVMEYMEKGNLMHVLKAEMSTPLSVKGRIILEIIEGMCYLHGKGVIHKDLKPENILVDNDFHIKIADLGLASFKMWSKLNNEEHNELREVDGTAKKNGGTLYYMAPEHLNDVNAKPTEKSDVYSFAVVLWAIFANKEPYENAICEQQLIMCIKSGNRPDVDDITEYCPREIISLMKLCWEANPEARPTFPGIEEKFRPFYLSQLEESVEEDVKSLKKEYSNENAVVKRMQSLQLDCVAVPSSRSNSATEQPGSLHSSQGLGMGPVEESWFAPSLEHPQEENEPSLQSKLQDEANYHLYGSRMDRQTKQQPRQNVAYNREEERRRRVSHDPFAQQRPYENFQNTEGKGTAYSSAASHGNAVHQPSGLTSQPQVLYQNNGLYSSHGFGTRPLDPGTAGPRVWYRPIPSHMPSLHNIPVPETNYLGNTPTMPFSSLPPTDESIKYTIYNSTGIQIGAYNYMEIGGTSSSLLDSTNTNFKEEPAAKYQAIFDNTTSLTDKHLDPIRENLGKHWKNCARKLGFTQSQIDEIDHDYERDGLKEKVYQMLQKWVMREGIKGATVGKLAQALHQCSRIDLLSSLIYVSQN
Experimental: RIPK1 kinase activity was assayed using the ADP-Glo assay and RIPK1 kinase reaction system (Promega, catalog number: VA7593). The RIPK1 kinase activity assay was performed according to the Promega kit manual.
The experimental method was briefly described as below. The concentration of RIPK1 kinase in the RIPK1 kinase reaction system was determined by kinase titration and S/B10. The compound was diluted with 1× kinase buffer D (1% DMSO), 1 μL of 1 mM compound DMSO stock solution was added to 19 μL 1× kinase buffer D, and the compound was serially diluted with 1× kinase buffer D at a ratio of 1:5, for a total of 8 concentration points, and a control with the same DMSO volume was set. RIPK1 kinase was diluted with 1× kinase buffer D. 2.5×ATP/substrate was diluted with 1× kinase buffer D. The final concentration of ATP in the kinase reaction system was 10 μM. The final concentration of MBP substrate was 100 μg/mL. 1 μL of diluted compound and 2 μL of diluted RIPK1 kinase were mixed, incubated at room temperature for 15 minutes, 2 μL of 2.5×ATP/substrate was added, mixed, and incubated at room temperature for 1 hour. 5 μL ADP-Glo reagent was added to each well and incubated at room temperature for 1 hour. 10 μL ADP detection reagent was added to each well and incubated at room temperature for another 0.5-1 hour. The chemiluminescent signal was read with a microplate reader and the kinase activity inhibition rate was calculated. IC50 was obtained by fitting the nonlinear regression curve log [inhibitor] vs. response-variable slope (four parameters) in GraphPad Prism.

[2] = tested on: U937 cells; assay: EC50 of necroptosis inhibition in U937 cells (TSZ-induced, CellTiter-Glo); format: cell-based; settings: Homo sapiens, U-937; TSZ (hTNF-α, SM-164, Z-VAD-FMK) 20 hours; 10 concentration points; read-out: EC50 intervals of necroptosis inhibition in U937 cells
How it was run: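 U937 cells pretreated 15 min with compound (10-point, 1:3 series), then necroptosis induced by TSZ (hTNF-α, SM-164, Z-VAD-FMK) for 20 h at 37 °C. Viability measured as ATP by CellTiter-Glo luminescence; inhibition normalised to untreated and TSZ-only wells, EC50 from four-parameter fit.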

| IC50 [1] [nM] | SMILES | EC50 [2] [nM] |
| --- | --- | --- |
| < 100 | CC(Cc1ccccc1)NC(=O)C(=O)N[C@H]1COc2ccc(C#CCCO)cc2N(C)C1=O (mixture of isomers) [Example 37, N^1-((S)-7-(4-hydroxybut-1-yn-1-yl)-5-methyl-4-oxo-2,3,4,5-tetrahydrobenzo[b][1,4]oxazepin-3-yl)-N^2-(1-phenylpropan-2-yl)oxalamide] | 100 to 500 |
| < 100 | CC(NC(=O)C(=O)N[C@H]1COc2ccc(C#CCCO)cc2N(C)C1=O)c1ccccc1 (mixture of isomers) [Example 41, N^1-((S)-7-(4-hydroxybut-1-yn-1-yl)-5-methyl-4-oxo-2,3,4,5-tetrahydrobenzo[b][1,4]oxazepin-3-yl)-N^2-(1-phenylethyl)oxalamide] | < 100 |
| < 100 | CC(CNC(=O)C(=O)N[C@H]1COc2ccc(C#CCCO)cc2N(C)C1=O)c1ccccc1 (mixture of isomers) [Example 154, N^1-((S)-7-(4-hydroxybut-1-yn-1-yl)-5-methyl-4-oxo-2,3,4,5-tetrahydrobenzo[b][1,4]oxazepin-3-yl)-N^2-(2-phenylpropyl)oxalamide] | < 100 |
| < 100 | CC#Cc1ccc2c(c1)N(C)C(=O)[C@@H](NC(=O)C(=O)NCCc1ccccc1)CO2 [Example 19, (S)—N^1-(5-methyl-4-oxo-7-(prop-1-yn-1-yl)-2,3,4,5-tetrahydrobenzo[b][1,4]oxazepin-3-yl)-N^2-phenethyloxalamide] | < 100 |
| < 100 | CN1C(=O)[C@@H](NC(=O)C(=O)NCCc2ccccc2)COc2ccc(C#CCCO)cc21 [Example 31, (S)—N^1-(7-(4-hydroxybut-1-yn-1-yl)-5-methyl-4-oxo-2,3,4,5-tetrahydrobenzo[b][1,4]oxazepin-3-yl)-N^2-phenethyloxalamide] | < 100 |
| < 100 | CN1C(=O)[C@@H](NC(=O)C(=O)NCc2ccccc2)COc2ccc(C#CCCO)cc21 [Example 32, (S)—N^1-benzyl-N^2-(7-(4-hydroxybut-1-yn-1-yl)-5-methyl-4-oxo-2,3,4,5-tetrahydrobenzo[b][1,4]oxazepin-3-yl)oxalamide] | < 100 |
| < 100 | CN1C(=O)[C@@H](NC(=O)C(=O)NCCc2ccccc2F)COc2ccc(C#CCCO)cc21 [Example 33, (S)—N^1-(2-fluorophenethyl)-N^2-(7-(4-hydroxybut-1-yn-1-yl)-5-methyl-4-oxo-2,3,4,5-tetrahydrobenzo[b][1,4]oxazepin-3-yl)oxalamide] | < 100 |
| < 100 | CN1C(=O)[C@@H](NC(=O)C(=O)NCCc2cccc(F)c2)COc2ccc(C#CCCO)cc21 [Example 34, (S)—N^1-(3-fluorophenethyl)-N^2-(7-(4-hydroxybut-1-yn-1-yl)-5-methyl-4-oxo-2,3,4,5-tetrahydrobenzo[b][1,4]oxazepin-3-yl)oxalamide] | < 100 |

Second part, the compound before the results:

| SMILES | IC50 [1] [nM] | EC50 [2] [nM] |
| --- | --- | --- |
| CN1CCC(CC#Cc2ccc3c(c2)N(C)C(=O)[C@@H](NC(=O)C(=O)NCCc2ccccc2)CO3)C1=O (mixture of isomers) [Example 82, N^1-((3S)-5-methyl-7-(3-(1-methyl-2-oxopyrrolidin-3-yl)prop-1-yn-1-yl)-4-oxo-2,3,4,5-tetrahydrobenzo[b][1,4]oxazepin-3-yl)-N^2-phenethyloxalamide] | < 100 | < 100 |
| CN1C(=O)[C@@H](NC(=O)C(=O)NCCc2cccc(F)c2)COc2ccc(C#CCN3CCC(O)C3)cc21 (mixture of isomers) [Example 113, N^1-(3-fluorophenethyl)-N^2-((3S)-7-(3-(3-hydroxypyrrolidin-1-yl)prop-1-yn-1-yl)-5-methyl-4-oxo-2,3,4,5-tetrahydrobenzo[b][1,4]oxazepin-3-yl)oxalamide] | < 100 | < 100 |
| C[C@@H](NC(=O)C(=O)N[C@H]1COc2ccc(C#CCN3CCC(O)C3)cc2N(C)C1=O)c1ccccc1 (mixture of isomers) [Example 126, N^1-((3S)-7-(3-(3-hydroxypyrrolidin-1-yl)prop-1-yn-1-yl)-5-methyl-4-oxo-2,3,4,5-tetrahydrobenzo[b][1,4]oxazepin-3-yl)-N^2-((R)-1-phenylethyl)oxalamide] | < 100 | < 100 |
| CN1C(=O)[C@@H](NC(=O)C(=O)NCCc2ccccc2)COc2ccc(C#Cc3cccnc3)cc21 [Example 13, (S)—N^1-(5-methyl-4-oxo-7-(pyridin-3-ylethynyl)-2,3,4,5-tetrahydrobenzo[b][1,4]oxazepin-3-yl)-N^2-phenethyloxalamide] | < 100 | < 100 |
| CN1C(=O)[C@@H](NC(=O)C(=O)NCCc2ccccc2)COc2ccc(C#Cc3ccsc3)cc21 [Example 17, (S)—N^1-(5-methyl-4-oxo-7-(thiophen-3-ylethynyl)-2,3,4,5-tetrahydrobenzo[b][1,4]oxazepin-3-yl)-N^2-phenethyloxalamide] | < 100 | < 100 |
| CN1C(=O)[C@@H](NC(=O)C(=O)NCCc2ccccc2)COc2ccc(C#C[Si](C)(C)C)cc21 [Example 18, (S)—N^1-(5-methyl-4-oxo-7-((trimethylsilyl)ethynyl)-2,3,4,5-tetrahydrobenzo[b][1,4]oxazepin-3-yl)-N^2-phenethyloxalamide] | < 100 | < 100 |
| CN1C(=O)[C@@H](NC(=O)C(=O)NCCc2ccccc2)COc2ccc(C#CC3CCOCC3)cc21 [Example 21, (S)—N^1-(5-methyl-4-oxo-7-((tetrahydro-2H-pyran-4-yl)ethynyl)-2,3,4,5-tetrahydrobenzo[b][1,4]oxazepin-3-yl)-N^2-phenethyloxalamide] | < 100 | < 100 |
| CN1C(=O)[C@@H](NC(=O)C(=O)NCCc2ccccc2)COc2ccc(C#Cc3cnn(C)c3)cc21 [Example 22, (S)—N^1-(5-methyl-7-((1-methyl-1H-pyrazol-4-yl)ethynyl)-4-oxo-2,3,4,5-tetrahydrobenzo[b][1,4]oxazepin-3-yl)-N^2-phenethyloxalamide] | < 100 | < 100 |
| CN1C(=O)[C@@H](NC(=O)C(=O)NCCc2ccccc2)COc2ccc(C#CC3CCCNC3)cc21 (stereo partly drawn) [Example 24, N^1-((3S)-5-methyl-4-oxo-7-(piperidin-3-ylethynyl)-2,3,4,5-tetrahydrobenzo[b][1,4]oxazepin-3-yl)-N^2-phenethyloxalamide] | < 100 | < 100 |
| CN1C(=O)[C@@H](NC(=O)C(=O)NCCc2ccccc2)COc2ccc(C#Cc3cnc4cccnn34)cc21 [Example 25, (S)—N^1-(7-(imidazo[1,2-b]pyridazin-3-ylethynyl)-5-methyl-4-oxo-2,3,4,5-tetrahydrobenzo[b][1,4]oxazepin-3-yl)-N^2-phenethyloxalamide] | < 100 | < 100 |
| CN1C(=O)[C@@H](NC(=O)C(=O)NCCc2ccccc2)COc2ccc(C#CC(C)(C)O)cc21 [Example 29, (S)—N^1-(7-(3-hydroxy-3-methylbut-1-yn-1-yl)-5-methyl-4-oxo-2,3,4,5-tetrahydrobenzo[b][1,4]oxazepin-3-yl)-N^2-phenethyloxalamide] | < 100 | < 100 |
| CN1C(=O)[C@@H](NC(=O)C(=O)NCCc2ccc(F)cc2)COc2ccc(C#CCCO)cc21 [Example 35, (S)—N^1-(4-fluorophenethyl)-N^2-(7-(4-hydroxybut-1-yn-1-yl)-5-methyl-4-oxo-2,3,4,5-tetrahydrobenzo[b][1,4]oxazepin-3-yl)oxalamide] | < 100 | 100 to 500 |
| CN1C(=O)[C@@H](NC(=O)C(=O)NCCc2cc(F)cc(F)c2)COc2ccc(C#CCCO)cc21 [Example 36, (S)—N^1-(3,5-difluorophenethyl)-N^2-(7-(4-hydroxybut-1-yn-1-yl)-5-methyl-4-oxo-2,3,4,5-tetrahydrobenzo[b][1,4]oxazepin-3-yl)oxalamide] | < 100 | < 100 |
